From patent US20250161216A1, “CATIONIC LIPID ANALOGUES, COMPOSITIONS AND USES THEREOF” (GUANGZHOU LIDE BIOMEDICINE TECHNOLOGY CO., LTD., priority 2022, published 2025)

tested on: C57BL/6 mice; test: In vivo expression level of Luciferase-mRNA delivered by intravenous injection (bioluminescence imaging); details: mRNA-loaded nanoparticles, compounds of Example 1; intravenous (tail vein), 5 μg Luciferase-mRNA, 6 hours
Method: Luciferase-mRNA was used as an mRNA model; and the cationic lipid analogues of Examples 1-5 were used to prepare drug-loaded nanoparticles according to the method of Example 6.
200 μL of nanoparticles containing 5 μg Luciferase-mRNA or the drug-loaded nanoparticles prepared above were injected into tail veins of 6-8 week-old C57BL/6 mice, and 200 μL of 1×PBS solution containing 3 mg D-Luciferin potassium salt was intraperitoneally injected into the mice 6 hours later. After waiting for 10 minutes, an in vivo expression level of the mRNA was evaluated by bioluminescence imaging.

| Structure (SMILES) | Fluorescence intensity of liver | Bioluminescence intensity |
| --- | --- | --- |
| CCCCC/C=C\C/C=C\CCCCCCCC(=O)N(CCCN(C)C)C(C(=O)NCCCCCCCCCCCCCC)C(CC)CCCC (centres unmarked) [A4I14R2C18-2] | 9.02E+05 | – |
| CCCCCCCCCCCCC#CC#CCCCCCCCCC(=O)N(CCCN(CC)CC)C(C(=O)NCCCCCCCCCCCCCCCCCC)C(C)C (centres unmarked) [A1I18R3C23] | 7.67E+04 | – |
| CCCCCCCC/C=C\CCCCCCCC(=O)N(CCCN(CC)CC)C(C(=O)NCCCCCCCCCCCCCCCCCC)C1CCCCC1 (centres unmarked) [A23I18R3C18-1] | 1.26E+06 | – |
| CCCCC/C=C\C/C=C\CCCCCCCC(=O)N(CCCN(C)c1ccccc1)C(CCCCC)C(=O)NCCCCCCCCCCCCCCCCCC (centres unmarked) [A4I18R7C18-2] | 5.22E+03 | – |
| CCCCCCCCCCCCC#CC#CCCCCCCCCC(=O)N(CCCN(C)C)C(C(=O)NCCCCCCCCCCCCCCCCCC)C1CCCCC1 (centres unmarked) [A23I18R2C23] | 2.37E+06 | – |
| CCCCCCCCCCCCCCCCCCNC(=O)C(C(CC)CCCC)N(CCCN(CC)CC)C(=O)CCCCCCCCCCCCCCCCC (centres unmarked) [A4I18R3C18] | 1.69E+06 | – |
| CCCCCCCCCCCCCCCCCCNC(=O)C(C(C)C)N(CCCN(CC)CC)C(=O)CCCCCCCCCCCCCCCCC (centres unmarked) [A1I18R3C18] | 3.91E+03 | – |
| CC/C=C\C/C=C\C/C=C\CCCCCCCC(=O)N(CCN(C)C)C(C(=O)NCCCCCCCCCCCCCCCCCC)C(CC)CCCC (centres unmarked) [A4I18R1C18-3] | 3.88E+06 | – |
| CCCCCCCCCCCCC#CC#CCCCCCCCCC(=O)N(CCCN(CC)CC)C(C(=O)NCCCCCCCCCCCCCCCCCC)C(CC)CCCC (centres unmarked) [A4I18R3C18-3] | – | 1.32E+07 |
| CCCCC/C=C\C/C=C\CCCCCCCC(=O)N(CCCN(CC)CC)C(C(=O)NCCCCCCCCCCCCCCCCCC)C1CCCCC1 (centres unmarked) [A23I18R3C18-2] | 4.86E+06 | – |
| CCCCC/C=C\C/C=C\CCCCCCCC(=O)N(CCCN(C)C)C(C(=O)NCCCCCCCCCCCCCCCCCC)C(C)CCC=C(C)C (centres unmarked) [A5I18R2C18-2] | 8.72E+05 | – |
| CCCCCCCCCCCCC#CC#CCCCCCCCCC(=O)N(CCN(C)C)C(C(=O)NCCCCCCCCCCCCCCCCCC)C(C)C (centres unmarked) [A1I18R1C23] | 9.51E+05 | – |
| CC/C=C\C/C=C\C/C=C\CCCCCCCC(=O)N(CCCN(CC)CC)C(C(=O)NCCCCCCCCCCCCCCCCCC)C(C)C (centres unmarked) [A1I18R3C18-3] | 2.22E+04 | – |
| CC/C=C\C/C=C\C/C=C\CCCCCCCC(=O)N(CCCN(C)C)C(C(=O)NCCCCCCCCCCCCCCCCCC)C(C)C (centres unmarked) [A1I18R2C18-3] | 6.77E+04 | – |
| CC/C=C\C/C=C\C/C=C\CCCCCCCC(=O)N(CCN(C)C)C(C(=O)NCCCCCCCCCCCCCCCCCC)C(C)C (centres unmarked) [A1I18R1C18-3] | 1.88E+06 | – |
| CCCCCCCCCCCCCCCCCCNC(=O)C(C(C)C)N(CCN(C)C)C(=O)CCCCCCCCCCCCCCCCC (centres unmarked) [A1I18R1C18] | 6.37E+03 | – |
| CC/C=C\C/C=C\C/C=C\CCCCCCCC(=O)N(CCCN(C)C)C(C(=O)NCCCCCCCCCCCCCCCCCC)C1CCCCC1 (centres unmarked) [A23I18R2C18-3] | 9.49E+05 | – |
| CCCCC/C=C\C/C=C\CCCCCCCC(=O)N(CCN(CC)CC)C(C(=O)NCCCCCCCCCCCCCCCCCC)C(CC)CCCC (centres unmarked) [A4I18R8C18-2] | 2.48E+04 | – |
| CCCCC/C=C\C/C=C\CCCCCCCC(=O)N(CCN(C)CC)C(C(=O)NCCCCCCCCCCCCCCCCCC)C(CC)CCCC (centres unmarked) [A4I18R6C18-2] | 3.64E+04 | – |
| CCCCCCCCCCCCC#CC#CCCCCCCCCC(=O)N(CCN(C)C)C(C(=O)NCCCCCCCCCCCCCCCCCC)C(CC)CCCC (centres unmarked) [A4I18R1C23] | 1.78E+06 | – |

same assay, conditions: mRNA-loaded nanoparticles, compounds of Example 2; intravenous (tail vein), 5 μg Luciferase-mRNA, 6 hours

| Structure (SMILES) | Fluorescence intensity of spleen | Bioluminescence intensity |
| --- | --- | --- |
| CCCCC/C=C\C/C=C\CCCCCCCC(=O)N(CCCN(C)C)C(C(=O)NCCN(C)CCNC(=O)C(C1CCCCC1)N(CCCN(C)C)C(=O)CCCCCCC/C=C\C/C=C\CCCCC)C1CCCCC1 (centres unmarked) [A23I4R2C18-2] | 2.18E+03 | – |
| CCCCCCCCCCCCCCCCCC(=O)N(CCCN(C)C)C(C(=O)NCCN(C)CCNC(=O)C(C1CC1)N(CCCN(C)C)C(=O)CCCCCCCCCCCCCCCCC)C1CC1 (centres unmarked) [A21I4R2C18] | 1.04E+03 | – |
| CCCCCCCCCCCCCCCCCC(=O)N(CCC)C(C(=O)NCCN(C)CCNC(=O)C(C(CC)CCCC)N(CCC)C(=O)CCCCCCCCCCCCCCCCC)C(CC)CCCC (centres unmarked) [A4I4R21C18] | 2.09E+04 | – |
| CCCCC/C=C\C/C=C\CCCCCCCC(=O)N(CCCN(C)C)C(C(=O)NCCN(C)CCNC(=O)C(C1CC1)N(CCCN(C)C)C(=O)CCCCCCC/C=C\C/C=C\CCCCC)C1CC1 (centres unmarked) [A21I4R2C18-2] | 1.83E+03 | – |
| CCCCC/C=C\C/C=C\CCCCCCCC(=O)N(CCN1CCCCCC1)C(C(=O)NCCN(C)CCNC(=O)C(C1CC1)N(CCN1CCCCCC1)C(=O)CCCCCCC/C=C\C/C=C\CCCCC)C1CC1 (centres unmarked) [A21I4R13C18-2] | – | 8.67E+02 |
| CCCCCCCCCCCCCCCCCC(=O)N(CCO)C(C(=O)NCCN(C)CCNC(=O)C(C(C)C)N(CCO)C(=O)CCCCCCCCCCCCCCCCC)C(C)C (centres unmarked) [A1I4R22C18] | 1.10E+05 | – |
| CCCCC/C=C\C/C=C\CCCCCCCC(=O)N(CCOC)C(C(=O)NCCN(C)CCNC(=O)C(C1CCCCC1)N(CCOC)C(=O)CCCCCCC/C=C\C/C=C\CCCCC)C1CCCCC1 (centres unmarked) [A23I4R23C18-2] | 1.04E+05 | – |
| CCCCCCCC/C=C\CCCCCCCC(=O)N(CCO)C(C(=O)NCCN(C)CCNC(=O)C(C1CC1)N(CCO)C(=O)CCCCCCC/C=C\CCCCCCCC)C1CC1 (centres unmarked) [A21I4R22C18-1] | 1.76E+04 | – |
| CCCCC/C=C\C/C=C\CCCCCCCC(=O)N(CCC)C(C(=O)NCCN(C)CCNC(=O)C(C1CC1)N(CCC)C(=O)CCCCCCC/C=C\C/C=C\CCCCC)C1CC1 (centres unmarked) [A21I4R21C18-2] | 1.39E+03 | – |
| CCCCC/C=C\C/C=C\CCCCCCCC(=O)N(CCN1CCCCCC1)C(C(=O)NCCN(C)CCNC(=O)C(C1CCCCC1)N(CCN1CCCCCC1)C(=O)CCCCCCC/C=C\C/C=C\CCCCC)C1CCCCC1 (centres unmarked) [A23I4R13C18-2] | 9.46E+03 | – |
| CCCCCCCCCCCC(=O)N(CCO)C(C(=O)NCCN(C)CCNC(=O)C(C(C)C)N(CCO)C(=O)CCCCCCCCCCC)C(C)C (centres unmarked) [A1I4R22C12] | 3.90E+03 | – |
| CCCCC/C=C\C/C=C\CCCCCCCC(=O)N(CCN1CCCCCC1)C(C(=O)NCCN(C)CCNC(=O)C(C(CC)CCCC)N(CCN1CCCCCC1)C(=O)CCCCCCC/C=C\C/C=C\CCCCC)C(CC)CCCC (centres unmarked) [A4I4R13C18-2] | 1.19E+04 | – |
| CCCCCCCC/C=C\CCCCCCCC(=O)N(CCOC)C(C(=O)NCCN(C)CCNC(=O)C(C(CC)CCCC)N(CCOC)C(=O)CCCCCCC/C=C\CCCCCCCC)C(CC)CCCC (centres unmarked) [A4I4R23C18-1] | 6.08E+04 | – |
| CCCCC/C=C\C/C=C\CCCCCCCC(=O)N(CCOC)C(C(=O)NCCN(C)CCNC(=O)C(C1CC1)N(CCOC)C(=O)CCCCCCC/C=C\C/C=C\CCCCC)C1CC1 (centres unmarked) [A21I4R23C18-2] | 6.97E+04 | – |
| CCCCCCCCCCCCSSCCC(=O)N(CCO)C(C(=O)NCCN(C)CCNC(=O)C(C(C)C)N(CCO)C(=O)CCSSCCCCCCCCCCCC)C(C)C (centres unmarked) [A1I4R22S17] | 1.80E+04 | – |
| CCCCC/C=C\C/C=C\CCCCCCCC(=O)N(CCC)C(C(=O)NCCN(C)CCNC(=O)C(C(CC)CCCC)N(CCC)C(=O)CCCCCCC/C=C\C/C=C\CCCCC)C(CC)CCCC (centres unmarked) [A4I4R21C18-2] | 1.91E+04 | – |
| CCCCCCSSCCC(=O)N(CCO)C(C(=O)NCCN(C)CCNC(=O)C(C(C)C)N(CCO)C(=O)CCSSCCCCCC)C(C)C (centres unmarked) [A1I4R22S11] | 1.00E+03 | – |
| CCCCCCCC/C=C\CCCCCCCC(=O)N(CCN1CCCCCC1)C(C(=O)NCCN(C)CCNC(=O)C(C(C)C)N(CCN1CCCCCC1)C(=O)CCCCCCC/C=C\CCCCCCCC)C(C)C (centres unmarked) [A1I4R13C18-1] | 2.67E+03 | – |
| CCCCCCCC/C=C\CCCCCCCC(=O)N(CCOC)C(C(=O)NCCN(C)CCNC(=O)C(C1CC1)N(CCOC)C(=O)CCCCCCC/C=C\CCCCCCCC)C1CC1 (centres unmarked) [A21I4R23C18-1] | 2.28E+04 | – |
| CCCCCCCCCCCCCCSSCCC(=O)N(CCO)C(C(=O)NCCN(C)CCNC(=O)C(C(C)C)N(CCO)C(=O)CCSSCCCCCCCCCCCCCC)C(C)C (centres unmarked) [A1I4R22S19] | 2.50E+04 | – |
| CCCCCCCCCCCCCCCCCC(=O)N(CCC)C(C(=O)NCCN(C)CCNC(=O)C(C(C)C)N(CCC)C(=O)CCCCCCCCCCCCCCCCC)C(C)C (centres unmarked) [A1I4R21C18] | 3.46E+04 | – |
| CCCCCCCC/C=C\CCCCCCCC(=O)N(CCCN(C)C)C(C(=O)NCCN(C)CCNC(=O)C(C1CCCCC1)N(CCCN(C)C)C(=O)CCCCCCC/C=C\CCCCCCCC)C1CCCCC1 (centres unmarked) [A23I4R2C18-1] | 1.78E+03 | – |

same assay, conditions: mRNA-loaded nanoparticles, compounds of Example 3; intravenous (tail vein), 5 μg Luciferase-mRNA, 6 hours

| Structure (SMILES) | Fluorescence intensity of spleen |
| --- | --- |
| CCCCCCCCCCCCCCCC(=O)N(CCO)C(C(=O)NCCN(CCNC(=O)C(C(C)C)N(CCO)C(=O)CCCCCCCCCCCCCCC)CCNC(=O)C(C(C)C)N(CCO)C(=O)CCCCCCCCCCCCCCC)C(C)C (centres unmarked) [A1I5R22C16] | 4.10E+05 |
| CCCCCCCCCC(=O)N(CCO)C(C(=O)NCCN(CCNC(=O)C(C(C)C)N(CCO)C(=O)CCCCCCCCC)CCNC(=O)C(C(C)C)N(CCO)C(=O)CCCCCCCCC)C(C)C (centres unmarked) [A1I5R22C10] | 3.00E+05 |
| CCCCCCCCCCCCCCSSCCC(=O)N(CCO)C(C(=O)NCCN(CCNC(=O)C(C(C)C)N(CCO)C(=O)CCSSCCCCCCCCCCCCCC)CCNC(=O)C(C(C)C)N(CCO)C(=O)CCSSCCCCCCCCCCCCCC)C(C)C (centres unmarked) [A1I5R22S19] | 1.80E+06 |
| CCCCCCSSCCC(=O)N(CCO)C(C(=O)NCCN(CCNC(=O)C(C(C)C)N(CCO)C(=O)CCSSCCCCCC)CCNC(=O)C(C(C)C)N(CCO)C(=O)CCSSCCCCCC)C(C)C (centres unmarked) [A1I5R22S11] | 1.30E+05 |
| CCCCCCCC(=O)N(CCO)C(C(=O)NCCN(CCNC(=O)C(C(C)C)N(CCO)C(=O)CCCCCCC)CCNC(=O)C(C(C)C)N(CCO)C(=O)CCCCCCC)C(C)C (centres unmarked) [A1I5R22C8] | 1.50E+05 |
